In DBAASP:
Converted amounts (≈) assume the structure as drawn. “And” between values parts separate entries of the source, which are not always exact repeats. Equal entries are not always repeated. One block for each compound: values may come before it.

Columns and labels:
Experiment in all cases: ≥ marks a high value that may be exact or a test limit, other limits are often not marked, values filed in µg/mL are converted to µM
[1] = system: Pseudomonas aeruginosa ATCC 27853
[2] = system: Pseudomonas aeruginosa NCDC 0105
[3] = system: Listeria monocytogenes ATCC 19111
[4] = system: Staphylococcus aureus ATCC 29213
[5] = system: Acinetobacter johnsonii NCDC 0072
[6] = system: Staphylococcus aureus NCDC 0111
[7] = system: Bacillus cereus NCDC 0240
[8] = system: Salmonella enterica subsp. enterica serovar Typhimurium ATCC 14028
[9] = system: Escherichia coli MTCC 0723
[10] = system: Bacillus subtilis ATCC 6633
[11] = system: Pseudomonas aeruginosa ATCC BAA-427
[12] = system: Klebsiella pneumoniae ATCC 27736
[13] = system: Staphylococcus aureus ATCC 6538
[14] = system: Micrococcus luteus ATCC 9341
[15] = system: Staphylococcus aureus 1550
[16] = system: Pseudomonas aeruginosa ATCC 9027
[17] = system: Candida albicans ATCC 36232
[18] = system: Escherichia coli ATCC 2592
[19] = system: Streptococcus sanguinis ATCC 10556
[20] = system: Streptococcus mutans UA159
[21] = system: Streptococcus sobrinus ATCC 6715
[22] = system: Staphylococcus aureus ATCC 2592
Klebsiella pneumoniae = system: Klebsiella pneumoniae
[23] = system: Aspergillus flavus IFFI 4015
[24] = system: Penicillium urticae IFFI 2001
Bacillus megaterium = system: Bacillus megaterium
Shigella dysenteriae = system: Shigella dysenteriae
[25] = system: Pseudomonas aeruginosa CMCCB 10104
[26] = system: Candida albicans ATCC 2002
[27] = system: Staphylococcus aureus AB94004
[28] = system: Staphylococcus aureus ATCC 25923
[29] = system: Escherichia coli ATCC 25922
[30] = system: Staphylococcus aureus P1381
[31] = system: Staphylococcus aureus P1374
Escherichia coli AB94012 = system: Escherichia coli AB94012
[32] = system: Pseudomonas aeruginosa AB93066
[33] = system: Staphylococcus epidermidis
[34] = system: Acinetobacter baumannii KCTC 2508
Staphylococcus aureus = system: Staphylococcus aureus
Acinetobacter baumannii = system: Acinetobacter baumannii
[35] = system: Staphylococcus saprophyticus
Streptococcus pyogenes = system: Streptococcus pyogenes
Streptococcus sp. = system: Streptococcus sp.
[36] = system: Bacillus subtilis KCTC 2217
[37] = system: Klebsiella pneumoniae KCTC 2208
[38] = system: Bacillus cereus KCTC 1012
Escherichia coli = system: Escherichia coli

Compound: CC[C@H](C)[C@H](NC(=O)[C@H](Cc1c[nH]c2ccccc12)NC(=O)[C@@H](NC(=O)[C@H](Cc1c[nH]c2ccccc12)NC(=O)[C@@H]1CCCN1C(=O)[C@@H](NC(=O)[C@H](C)N)[C@@H](C)CC)[C@@H](C)CC)C(=O)N[C@@H](Cc1c[nH]c2ccccc12)C(=O)N[C@@H](Cc1c[nH]c2ccccc12)C(=O)N[C@@H](CC(C)C)C(=O)N[C@@H](CC(C)C)C(=O)N[C@@H](CCCN=C(N)N)C(=O)N[C@@H](CCCCN)C(=O)NCC(=O)O [AIPWIWIWWLLRKG]
MIC [1]: 6 µM (≈ 11 µg/mL) | MIC [2]: 6 µM (≈ 11 µg/mL) | MIC [3]: 6 µM (≈ 11 µg/mL) | MIC [4]: 6 µM (≈ 11 µg/mL) | MIC [5]: 1.5 µM (≈ 2.76 µg/mL) | MIC [6]: 0.4 µM (≈ 0.735 µg/mL) | MIC [7]: 0.8 µM (≈ 1.47 µg/mL) | MIC [8]: 1.5 µM (≈ 2.76 µg/mL) | MIC [9]: 6 µM (≈ 11 µg/mL)

Compound: CC[C@H](C)[C@H](NC(=O)CNC(=O)[C@H](CCCN=C(N)N)NC(=O)[C@H](Cc1ccccc1)NC(=O)[C@@H](NC(=O)[C@H](Cc1cnc[nH]1)NC(=O)[C@H](Cc1cnc[nH]1)NC(=O)[C@H](Cc1ccccc1)NC(=O)[C@@H](N)Cc1ccccc1)[C@@H](C)CC)C(=O)N[C@H](C(=O)N[C@@H](Cc1cnc[nH]1)C(=O)N[C@H](C(=O)NCC(=O)N[C@@H](CCCCN)C(=O)N[C@H](C(=O)N[C@H](C(=O)N[C@@H](Cc1cnc[nH]1)C(=O)N[C@@H](CCCN=C(N)N)C(=O)N[C@@H](CC(C)C)C(=O)N[C@H](C(=O)N[C@H](C(=O)NCC(N)=O)[C@@H](C)O)C(C)C)C(C)C)[C@@H](C)O)C(C)C)C(C)C [FFHHIFRGIVHVGKTVHRLVTG]
MIC [10]: 8 µM (≈ 20.5 µg/mL) | MIC [11]: 12 µM (≈ 30.7 µg/mL) | MIC [12]: 6 µM (≈ 15.3 µg/mL)

Compound: CC(C)[C@H](NC(=O)[C@H](CCCCN)NC(=O)[C@@H](NC(=O)[C@H](CCCCN)NC(=O)[C@H](Cc1ccccc1)NC(=O)[C@H](CCCCN)NC(=O)[C@@H](NC(=O)[C@H](CCCCN)NC(=O)[C@@H](N)Cc1ccccc1)C(C)C)C(C)C)C(=O)N[C@@H](CCCCN)C(=O)O [FKVKFKVKVK]
MIC [13]: 7.2 µM (≈ 9 µg/mL) | MIC [14]: 4 µM (≈ 5 µg/mL) | MIC [15]: 8.8 µM (≈ 11 µg/mL) | MIC [16]: 4.8 µM (≈ 6 µg/mL) | MIC [17]: 5 µM and 8 µM | MIC [18]: 10 µM (≈ 12.5 µg/mL)

Now from value to compound:

MIC [19]: ≥ 250 µM | MIC [20]: ≥ 250 µM | MIC [21]: ≥ 250 µM
Compound: CC(C)[C@H](NC(=O)[C@H](CCCN=C(N)N)NC(=O)[C@H](C)NC(=O)[C@H](C)NC(=O)[C@H](CCCCN)NC(=O)[C@H](CCCCN)NC(=O)[C@H](Cc1ccccc1)NC(=O)[C@H](Cc1ccccc1)NC(=O)[C@H](CCCN=C(N)N)NC(=O)CNC(=O)[C@H](Cc1c[nH]c2ccccc12)NC(=O)CN)C(=O)NCC(=O)N[C@@H](CCCCN)C(=O)N[C@@H](CCCN=C(N)N)C(=O)N[C@H](C(=O)NCC(=O)N[C@@H](CCCCN)C(=O)O)C(C)C [GWGRFFKKAARVGKRVGK]

MIC [22]: 1.27 µM (≈ 3.6 µg/mL) | MIC (Klebsiella pneumoniae): 1.27 µM (≈ 3.6 µg/mL) | MIC [23]: 4.22 µM (≈ 12 µg/mL) | MIC [24]: 4.22 µM (≈ 12 µg/mL) | MIC (Bacillus megaterium): 4.22 µM (≈ 12 µg/mL) | MIC (Shigella dysenteriae): 4.22 µM (≈ 12 µg/mL) | MIC [25]: 2.53 µM (≈ 7.2 µg/mL) | MIC [26]: 0.422 µM (≈ 1.2 µg/mL)
Compound: CC[C@H](C)[C@H](NC(=O)[C@H](CCCCN)NC(=O)[C@H](C)NC(=O)CNC(=O)[C@@H](NC(=O)[C@@H](N)CO)[C@@H](C)CC)C(=O)N[C@@H](CC(C)C)C(=O)NCC(=O)NCC(=O)N[C@H](C(=O)N[C@@H](CCCCN)C(=O)N[C@H](C(=O)N[C@@H](Cc1ccccc1)C(=O)N[C@@H](Cc1ccccc1)C(=O)N[C@@H](CCCCN)C(=O)NCC(=O)N[C@@H](C)C(=O)N[C@@H](CC(C)C)C(=O)N[C@@H](CCCCN)C(=O)N[C@@H](CCC(=O)O)C(=O)N[C@@H](CC(C)C)C(=O)N[C@@H](C)C(=O)N[C@@H](CO)C(=O)N[C@H](C(=O)N[C@@H](Cc1ccc(O)cc1)C(=O)N[C@@H](CC(C)C)C(=O)N[C@@H](CCC(N)=O)C(=O)O)[C@@H](C)O)[C@@H](C)O)C(C)C [SIGAKILGGVKTFFKGALKELASTYLQ]

MIC [27]: 3.97 µM (≈ 6.25 µg/mL) | MIC [13]: 3.97 µM (≈ 6.25 µg/mL) | MIC [28]: 3.97 µM (≈ 6.25 µg/mL) | MIC [16]: 15.9 µM (≈ 25 µg/mL) | MIC [29]: 31.7 µM (≈ 50 µg/mL) | MIC [30]: 7.93 µM (≈ 12.5 µg/mL) | MIC [31]: 3.97 µM (≈ 6.25 µg/mL) | MIC (Escherichia coli AB94012): 15.9 µM (≈ 25 µg/mL) | MIC [32]: 31.7 µM (≈ 50 µg/mL)
Compound: CC[C@H](C)[C@H](NC(=O)[C@H](CO)NC(=O)[C@H](CCCCN)NC(=O)[C@@H](NC(=O)CNC(=O)[C@H](CCCCN)NC(=O)[C@H](Cc1c[nH]c2ccccc12)NC(=O)[C@H](CC(C)C)NC(=O)[C@H](CCCCN)NC(=O)CNC(=O)[C@H](CC(C)C)NC(=O)[C@@H](NC(=O)[C@@H](N)CO)[C@@H](C)CC)C(C)C)C(=O)N[C@@H](Cc1ccccc1)C(N)=O [SILGKLWKGVKSIF]

MIC [33]: 3.1 µM (≈ 7.49 µg/mL) | MIC [34]: 2 µM (≈ 4.83 µg/mL) | MIC (Staphylococcus aureus): 3.1 µM and 1.41 µM | MIC (Acinetobacter baumannii): 4.42 µM and 12.5 µM | MIC [28]: 1 µM and > 0.5 µM | MIC (Klebsiella pneumoniae): 50 µM (≈ 121 µg/mL) | MIC [35]: 3.1 µM (≈ 7.49 µg/mL) | MIC [29]: 1 µM (≈ 2.42 µg/mL) | MIC (Streptococcus pyogenes): ≥ 50 µM | MIC (Streptococcus sp.): 3.1 µM (≈ 7.49 µg/mL) | MIC [36]: 1 µM (≈ 2.42 µg/mL) | MIC [37]: 2 µM (≈ 4.83 µg/mL) | MIC [38]: 2 µM (≈ 4.83 µg/mL) | MIC (Escherichia coli): 12.5 µM (≈ 30.2 µg/mL)
Compound: CC[C@H](C)[C@H](NC(=O)[C@H](Cc1ccccc1)NC(=O)[C@H](CCCCN)NC(=O)[C@H](CC(C)C)NC(=O)[C@H](C)NC(=O)[C@H](CO)NC(=O)[C@H](CC(C)C)NC(=O)[C@H](Cc1c[nH]c2ccccc12)NC(=O)[C@@H](N)C(C)C)C(=O)NCC(=O)N[C@@H](CCCCN)C(=O)N[C@@H](Cc1cnc[nH]1)C(=O)N[C@@H](CC(C)C)C(=O)N[C@@H](C)C(=O)N[C@@H](CCCCN)C(=O)N[C@@H](Cc1cnc[nH]1)C(=O)N[C@@H](CCC(N)=O)C(=O)N[C@@H](CC(C)C)C(=O)N[C@@H](CO)C(=O)N[C@@H](CCCCN)C(=O)N[C@@H](CC(C)C)C(N)=O [VWLSALKFIGKHLAKHQLSKL]
